Results as given in US6455537B1, “Methods for treating opiate intolerance” (priority 1999, dated 2002).
“Also recorded” adds a separate entry of the source.

How the values were obtained:
[1] = tested on: analgesic effects of morphine; test: Antagonism of morphine analgesia, tail flick test in rats; conditions: i.v.; lowest dose significantly antagonizing morphine in the tail flick test
Rat = test: Ataxic gait after antagonist alone, bolus intravenous injection; format: in vivo; conditions: i.v.; only the opiate antagonist given
Text: Only the opiate antagonist was given to study the acute side effect liability. Relative to the other compounds tested, higher doses of R N-methylnalorphine were required to produce ataxia as compared with the other compounds, with the exception of R and S N-methylnalorphine. Animals showing ataxic gait walked unsteadily with a widespread placement of the feet in a staggering manner.

morphine-induced emesis = test: Prevention of morphine-induced emesis in dogs; conditions: for Anti-emetic ED84 value: i.v. 5 minutes prior to morphine 0.7 mg/kg i.m., estimated dose that protects 84% of treated dogs
[2] = tested on: morphine-induced constipation; test: Gastrointestinal transit of a charcoal meal in morphine-treated mice; format: in vivo; conditions: morphine 3 mg/kg s.c.; charcoal meal by oral gavage; transit 25 minutes after charcoal
Experimental: Animals were give R N-methylnalorphine, then morphine 15 minutes later, followed by charcoal suspended in MC. Transit was measured 25 minutes after charcoal. * p<0.05 compared to morphine-treatment.
Morphine produces constipation, especially during chronic use. R N-methylnalorphine can also be used to treat constipation. […] These mice had reduced intestinal transit times of the charcoal gavage after morphine. The reduced rate of GI transit time produced by morphine is thought to be the basis of morphine's constipating effects in mammals, including man.

guinea pig ileum = conditions: cited from earlier work
dogs = test: Emesis produced by the antagonist by itself in dogs
[3] = tested on: cis-platinum-induced emesis; test: Cis-platinum-induced emesis in dogs; format: in vivo; conditions: 0.5 mg/kg i.v.
Text: Ondasetron is used postoperatively to reduce the incidence of emesis during recovery from surgery, and to reduce nausea and vomiting of cancer patients who may be receiving chemotherapy with agents such as cis-platinum. It is not effective in all post surgical or cancer patients.

Compound	Minimum Effective Dose to Antagonize Morphine Analgesia [1]	Minimum Dose to Produce Ataxic Gait In Rat (Rat)	Anti-emetic ED84 value (morphine-induced emesis)	Effect on slowed gastrointestinal transit produced by morphine [2]	also measured
C[N@+]1(CC2CC2)CC[C@]23c4c5ccc(O)c4O[C@H]2C(=O)CC[C@@]3(O)[C@H]1C5 [N-methylnaltrexone]	15 mg/kg i.v.	15 mg/kg i.v.	0.25 mg/kg i.v.		
C=CC[N+]1(C)CC[C@]23c4c5ccc(O)c4O[C@H]2C(=O)CC[C@@]3(O)[C@H]1C5 (stereo partly drawn) [N-methylnaloxone]	2.5 mg/kg i.v.	15 mg/kg i.v.	0.18 mg/k i.v. mg/kg		
C=CC[N@@+]1(C)CC[C@]23c4c5ccc(O)c4O[C@H]2[C@@H](O)C=C[C@H]3[C@H]1C5 [R N-methylnalorphine, (5α,6α,17R)-7,8-didehydro-4,5-epoxy-3,6-dihydroxy-17-methyl-17-(2-propenyl)morphinanium chloride]	30.0 mg/kg i.v.	30 mg/kg i.v.	0.11 mg/kg i.v.	reversal of the slowed transit time produced by morphine; also recorded: dose-dependent increase in gastrointestinal transit	Anti-emetic ED84 value (morphine-induced emesis; listed as compound of Formula (I)): 0.11 mg/kg
C=CC[N+]1(C)CC[C@]23c4c5ccc(O)c4O[C@H]2[C@@H](O)C=CC3[C@H]1C5 (stereo partly drawn) [S N-methylnalorphine]		15 mg/kg i.v.		no effect	Agonist potency weaker than antagonist activity in vitro (guinea pig ileum): 10 fold; Agonist properties (guinea pig ileum; guinea pig ileum, not other tissues with mu receptors): very weak agonist properties; Emesis in % of animals (dogs; 0.5 mg/kg i.v., compound by itself): Emesis in 12.5% of animals at 0.5; Doses at which dogs demonstrated emesis (dogs; dog, in vivo, intravenous): > 0.5 mg/kg; Animals with emesis produced by the compound by itself (dogs; first pharmacological action): 1 out of 8; Block of morphine-induced emesis (morphine-induced emesis; doses tested up to 0.5 mg/kg i.v., morphine 0.7 mg/kg i.m., listed as S isomer of N-methylnalorphine): not active
Cc1nccn1CC1CCc2c(c3ccccc3n2C)C1=O (stereo not drawn) [ondansetron]					Protection from cis-platinum-induced emesis [3]: completely protects; Protection from the emetic effects of morphine (morphine-induced emesis; 0.5 mg/kg i.v., morphine 0.7mg/kg i.m.): failed to protect any dogs
